Measurements from publication PMC4121272, “Two β-Galactosidases from the Human Isolate Bifidobacterium breve DSM 20213: Molecular Cloning and Expression, Biochemical Characterization and Synthesis of Galacto-Oligosaccharides” (PLoS ONE, 2014).

Experiments:
β-gal I = target: T1, β-gal I (Bifidobacterium breve, UniProt D4BLG2); assay: oNPG hydrolysis, o-nitrophenol release at […] nm, nonlinear regression; format: biochemical; conditions: competitive vs oNPG; 50 mM sodium phosphate pH 6.5, 30°C
T1 construct: gene BIFBRE_02894; full length, C-terminal His6 tag kept (pET-21a), E. coli T7 Express with GroEL/GroES, IMAC; calculated 116,127 Da; homodimer 220 kDa; GH2; N-terminus from primer MQGKAKT, C-terminus before tag DVTLELI
T1 sequence (D4BLG2 entry or part of it): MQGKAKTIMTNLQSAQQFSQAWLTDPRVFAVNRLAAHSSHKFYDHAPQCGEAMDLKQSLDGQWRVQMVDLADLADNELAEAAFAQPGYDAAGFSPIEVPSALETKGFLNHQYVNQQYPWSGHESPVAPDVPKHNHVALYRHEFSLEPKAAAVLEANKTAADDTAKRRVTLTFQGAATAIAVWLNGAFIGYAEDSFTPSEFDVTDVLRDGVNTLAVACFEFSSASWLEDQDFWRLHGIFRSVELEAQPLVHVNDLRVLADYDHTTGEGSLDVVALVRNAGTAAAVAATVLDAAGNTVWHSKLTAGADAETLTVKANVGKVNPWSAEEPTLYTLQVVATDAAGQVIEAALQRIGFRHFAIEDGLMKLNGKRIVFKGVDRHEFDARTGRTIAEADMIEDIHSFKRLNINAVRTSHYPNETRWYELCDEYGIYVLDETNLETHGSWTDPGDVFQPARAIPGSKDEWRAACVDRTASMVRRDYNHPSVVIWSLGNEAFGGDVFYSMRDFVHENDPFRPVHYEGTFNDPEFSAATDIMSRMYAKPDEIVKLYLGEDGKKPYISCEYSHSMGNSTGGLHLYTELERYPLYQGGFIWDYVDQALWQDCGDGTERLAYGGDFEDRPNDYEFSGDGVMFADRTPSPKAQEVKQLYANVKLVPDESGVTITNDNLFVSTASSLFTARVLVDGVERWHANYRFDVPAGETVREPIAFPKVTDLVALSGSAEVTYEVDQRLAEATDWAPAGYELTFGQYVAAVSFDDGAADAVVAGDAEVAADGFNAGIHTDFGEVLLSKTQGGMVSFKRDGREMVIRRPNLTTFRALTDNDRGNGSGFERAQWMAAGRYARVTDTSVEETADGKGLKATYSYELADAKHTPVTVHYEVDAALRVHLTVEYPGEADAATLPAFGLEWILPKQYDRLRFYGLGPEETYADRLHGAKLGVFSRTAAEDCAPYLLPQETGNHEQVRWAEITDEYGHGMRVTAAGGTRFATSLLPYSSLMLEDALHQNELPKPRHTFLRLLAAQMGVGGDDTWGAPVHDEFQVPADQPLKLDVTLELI

β-gal II = target: T2, β-gal II (Bifidobacterium breve, UniProt D4BR09); assay: as above; format: biochemical; conditions: competitive vs oNPG; 50 mM sodium phosphate pH 6.5, 30°C
T2 construct: gene BIFBRE_04539; full length, C-terminal His6 tag kept (pET-21a), E. coli T7 Express with GroEL/GroES, IMAC; calculated 116,594 Da; homodimer 211 kDa; GH2; N-terminus from primer MNTTDDQ, C-terminus before tag DVNLELI
T2 sequence (D4BR09 entry or part of it): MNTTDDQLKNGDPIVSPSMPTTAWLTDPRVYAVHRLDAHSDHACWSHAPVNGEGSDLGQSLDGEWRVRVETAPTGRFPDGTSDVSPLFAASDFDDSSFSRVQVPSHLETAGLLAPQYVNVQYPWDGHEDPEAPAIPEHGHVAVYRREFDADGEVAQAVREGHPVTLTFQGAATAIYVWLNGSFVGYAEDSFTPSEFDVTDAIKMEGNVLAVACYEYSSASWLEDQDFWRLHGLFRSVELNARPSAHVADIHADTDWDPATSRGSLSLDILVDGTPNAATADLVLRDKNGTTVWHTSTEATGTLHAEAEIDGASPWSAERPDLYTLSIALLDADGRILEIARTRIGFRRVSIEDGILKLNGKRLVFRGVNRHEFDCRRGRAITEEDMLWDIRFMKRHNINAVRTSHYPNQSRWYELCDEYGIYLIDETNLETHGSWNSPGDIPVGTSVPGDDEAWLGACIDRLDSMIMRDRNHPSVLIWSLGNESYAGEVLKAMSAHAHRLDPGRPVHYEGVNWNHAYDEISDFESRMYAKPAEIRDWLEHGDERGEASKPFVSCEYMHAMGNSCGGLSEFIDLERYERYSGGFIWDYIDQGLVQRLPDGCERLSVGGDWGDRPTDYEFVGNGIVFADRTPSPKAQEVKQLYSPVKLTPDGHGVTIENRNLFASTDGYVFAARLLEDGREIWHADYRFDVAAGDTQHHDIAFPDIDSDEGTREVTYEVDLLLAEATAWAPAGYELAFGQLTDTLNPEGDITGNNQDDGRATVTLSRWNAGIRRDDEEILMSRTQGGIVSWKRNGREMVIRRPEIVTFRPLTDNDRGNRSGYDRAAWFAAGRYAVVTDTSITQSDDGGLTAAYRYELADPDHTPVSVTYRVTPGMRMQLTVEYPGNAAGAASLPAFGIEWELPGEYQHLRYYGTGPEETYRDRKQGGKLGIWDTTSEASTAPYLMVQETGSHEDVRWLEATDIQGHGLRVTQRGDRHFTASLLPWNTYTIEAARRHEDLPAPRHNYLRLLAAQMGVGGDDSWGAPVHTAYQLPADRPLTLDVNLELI

Ki (β-gal I) [mM] | Ki (β-gal II) [mM] | Compound
15 ± 3 | 34 ± 5 | OC[C@H]1OC(O)[C@H](O)[C@@H](O)[C@H]1O (stereo partly drawn) [D-galactose]
 | 37 ± 4 | OC[C@H]1OC(O)[C@H](O)[C@@H](O)[C@@H]1O (stereo partly drawn) [D-glucose]
